Data as given in US9145392B2, “Imidazole amines as modulators of kinase activity” (Merck Patent GmbH, priority 2011, dated 2015).

Tests used:
[1] = molecular target: P70S6K (T412E mutant) (Homo sapiens (Human), UniProt P23443, T412E); assay: P70S6K enzyme assay; assay type: biochemical; settings: read-out: IC50 p70S6K
How it was run: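 Phosphorylated product and substrate peptide separated by microfluidic capillary electrophoresis (Caliper LabChip 3000), product peaks resolving before substrate.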

[2] = molecular target: His-AKT (Full Length) (Homo sapiens (Human), UniProt P31749); assay: AKT enzyme assay; assay type: biochemical; settings: read-out: IC50 AKT
Chain of His-AKT (Full Length) (P31749 whole entry): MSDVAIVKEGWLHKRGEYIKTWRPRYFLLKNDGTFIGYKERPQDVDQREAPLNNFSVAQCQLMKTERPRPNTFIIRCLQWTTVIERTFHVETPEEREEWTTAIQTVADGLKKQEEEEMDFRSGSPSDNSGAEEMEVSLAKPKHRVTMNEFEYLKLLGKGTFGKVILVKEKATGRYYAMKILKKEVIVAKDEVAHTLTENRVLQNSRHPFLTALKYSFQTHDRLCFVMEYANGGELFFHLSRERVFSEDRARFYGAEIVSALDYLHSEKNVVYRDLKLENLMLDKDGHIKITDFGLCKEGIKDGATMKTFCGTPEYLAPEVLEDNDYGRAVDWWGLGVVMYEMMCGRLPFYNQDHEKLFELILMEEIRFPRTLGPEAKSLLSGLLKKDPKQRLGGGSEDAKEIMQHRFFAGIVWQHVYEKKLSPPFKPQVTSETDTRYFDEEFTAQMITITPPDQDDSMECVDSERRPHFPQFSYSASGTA

Chain of P70S6K (T412E mutant) (P23443 whole entry T412E): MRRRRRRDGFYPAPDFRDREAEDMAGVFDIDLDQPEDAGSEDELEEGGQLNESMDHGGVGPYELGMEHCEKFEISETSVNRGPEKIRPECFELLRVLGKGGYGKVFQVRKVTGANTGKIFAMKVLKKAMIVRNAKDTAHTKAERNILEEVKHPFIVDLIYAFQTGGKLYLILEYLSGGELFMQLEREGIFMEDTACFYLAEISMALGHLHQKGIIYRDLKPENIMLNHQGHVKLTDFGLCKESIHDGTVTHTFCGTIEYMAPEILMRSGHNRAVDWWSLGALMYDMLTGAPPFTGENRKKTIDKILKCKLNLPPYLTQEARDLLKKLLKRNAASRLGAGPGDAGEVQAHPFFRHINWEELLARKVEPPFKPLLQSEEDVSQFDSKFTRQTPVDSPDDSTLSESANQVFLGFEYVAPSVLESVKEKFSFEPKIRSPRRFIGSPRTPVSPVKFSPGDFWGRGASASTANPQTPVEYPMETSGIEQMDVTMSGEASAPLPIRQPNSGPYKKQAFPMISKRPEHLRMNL

| SMILES | IC50 [1] [nM] | IC50 [2] [nM] |
| --- | --- | --- |
| N#Cc1c(N)ncnc1N1CCC(c2nc(-c3ccc(F)c(C(F)(F)F)c3)cn2CCNCC2CC2)CC1 [Compound 358, 4-Amino-6-{4-[1-[2-(cyclopropylmethyl-amino)-ethyl]-4-(4-fluoro-3-trifluoromethyl-phenyl)-1H-imidazol-2-yl]-piperidin-1-yl}-pyrimidine-5-carbonitrile] | 1.1 | 1.6 |
| CC(C)N(C)CCn1cc(-c2ccc(F)c(C(F)(F)F)c2)nc1C1CCN(c2ncnc(N)c2C#N)CC1 [Compound 360, 4-Amino-6-(4-{4-(4-fluoro-3-trifluoromethyl-phenyl)-1-[2-(isopropyl-methyl-amino)-ethyl]-1H-imidazol-2-yl}-piperidin-1-yl)-pyrimidine-5-carbonitrile] | 2.2 | 2.7 |
| CC(C)N(C)CCn1cc(-c2ccc(F)c(C(F)(F)F)c2)nc1C1CCN(c2ncnc(N)c2C(N)=O)CC1 [Compound 361, 4-Amino-6-(4-{4-(4-fluoro-3-trifluoromethyl-phenyl)-1-[2-(isopropyl-methyl-amino)-ethyl]-1H-imidazol-2-yl}-piperidin-1-yl)-pyrimidine-5-carboxylic acid amide] | 6.4 | 11 |
| CN(C)CCN(C)CCn1cc(-c2ccc(F)c(C(F)(F)F)c2)nc1C1CCN(c2ncnc(N)c2C#N)CC1 [Compound 362, 4-Amino-6-{4-[1-{2-[(2-dimethylamino-ethyl)-methyl-amino]-ethyl}-4-(4-fluoro-3-trifluoromethyl-phenyl)-1H-imidazol-2-yl]-piperidin-1-yl}-pyrimidine-5-carbonitrile] | 4.1 | 76 |
| COCCN(C)CCn1cc(-c2ccc(F)c(C(F)(F)F)c2)nc1C1CCN(c2ncnc(N)c2C#N)CC1 [Compound 363, 4-Amino-6-[4-(4-(4-fluoro-3-trifluoromethyl-phenyl)-1-{2-[(2-methoxy-ethyl)-methyl-amino]-ethyl}-1H-imidazol-2-yl)-piperidin-1-yl]-pyrimidine-5-carbonitrile] | 3.4 | 26 |
| CN(C)CCN(C)CCn1cc(-c2ccc(F)c(C(F)(F)F)c2)nc1C1CCN(c2ncnc(N)c2C(N)=O)CC1 [Compound 365, 4-Amino-6-{4-[1-{2-[(2-dimethylamino-ethyl)-methyl-amino]-ethyl}-4-(4-fluoro-3-trifluoromethyl-phenyl)-1H-imidazol-2-yl]-piperidin-1-yl}-pyrimidine-5-carboxylic acid amide] | 6.3 | 730 |

The next lines start with the values.

| IC50 [1] [nM] | IC50 [2] [nM] | SMILES |
| --- | --- | --- |
| 2.7 | 12 | NC(=O)c1c(N)ncnc1N1CCC(c2nc(-c3ccc(F)c(C(F)(F)F)c3)cn2CCNCC2CC2)CC1 [Compound 359, 4-Amino-6-{4-[1-[2-(cyclopropylmethyl-amino)-ethyl]-4-(4-fluoro-3-trifluoromethyl-phenyl)-1H-imidazol-2-yl]-piperidin-1-yl}-pyrimidine-5-carboxylic acid amide] |
| 1.4 | 2.5 | COCCNCCn1cc(-c2ccc(F)c(C(F)(F)F)c2)nc1C1CCN(c2ncnc(N)c2C#N)CC1 [Compound 364, 4-Amino-6-(4-{4-(4-fluoro-3-trifluoromethyl-phenyl)-1-[2-(2-methoxy-ethylamino)-ethyl]-1H-imidazol-2-yl}-piperidin-1-yl)-pyrimidine-5-carbonitrile] |
| 9.2 | 440 | COCCN(C)CCn1cc(-c2ccc(F)c(C(F)(F)F)c2)nc1C1CCN(c2ncnc(N)c2C(N)=O)CC1 [Compound 366, 4-Amino-6-[4-(4-(4-fluoro-3-trifluoromethyl-phenyl)-1-{2-[(2-methoxy-ethyl)-methyl-amino]-ethyl}-1H-imidazol-2-yl)-piperidin-1-yl]-pyrimidine-5-carboxylic acid amide] |
| 4 | 67 | COCCNCCn1cc(-c2ccc(F)c(C(F)(F)F)c2)nc1C1CCN(c2ncnc(N)c2C(N)=O)CC1 [Compound 367, 4-Amino-6-(4-{4-(4-fluoro-3-trifluoromethyl-phenyl)-1-[2-(2-methoxy-ethylamino)-ethyl]-1H-imidazol-2-yl}-piperidin-1-yl)-pyrimidine-5-carboxylic acid amide] |
